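Tested at 5 concentrations; 48 h exposure; 96-well plates; endpoints linearly interpolated, else capped at highest concentration. At the GI50, growth is halved.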 The source made the active and inactive calls. Rule as the data show it: active = GI50 up to about 1.1 µM and inactive = higher.
Columns and labels:
Experiment in all cases: inhibition of tumour cell growth, NCI panel, 48 h
[1] = test system: A498
[2] = test system: A549
[3] = test system: ACHN
[4] = test system: CCRF-CEM
[5] = test system: COLO 205
[6] = test system: DLD-1
[7] = test system: DMS-114
[8] = test system: DMS-273
[9] = test system: EKVX
[10] = test system: HCC 2998
[11] = test system: HCT-116
[12] = test system: HCT-15
[13] = test system: HL-60
[14] = test system: HOP-62
[15] = test system: HOP-92
[16] = test system: HT-29
[17] = test system: IGROV-1
[18] = test system: K562
[19] = test system: KM-20L2
[20] = test system: KM12
[21] = test system: LOX IMVI
[22] = test system: LXFL 529
[23] = test system: M14
[24] = test system: MOLT-4
[25] = test system: Malme-3M
[26] = test system: NCI-H226
[27] = test system: NCI-H23
[28] = test system: NCI-H460
[29] = test system: NCI-H522
[30] = test system: OVCAR-3
[31] = test system: OVCAR-4
[32] = test system: OVCAR-5
[33] = test system: OVCAR-8
[34] = test system: RXF 393
[35] = test system: SF-268
[36] = test system: SF-295
[37] = test system: SF-539
[38] = test system: SK-MEL-28
[39] = test system: SK-MEL-2
[40] = test system: SK-MEL-5
[41] = test system: SK-OV-3
[42] = test system: SN12C
[43] = test system: SNB-19
[44] = test system: SNB-75
[45] = test system: SNB-78
[46] = test system: SR
[47] = test system: SW-620
[48] = test system: TK-10
[49] = test system: U-251
[50] = test system: UACC-257
[51] = test system: UACC-62
[52] = test system: XF498

SMILES: Nc1nc(SCc2ccc([N+](=O)[O-])cc2)nc2c1ncn2C1OC(COP(=O)(O)O)C(O)C1O (configuration not stated)
- GI50 [1]: > 100 µM (inactive)
- GI50 [2]: > 100 µM (inactive)
- GI50 [3]: > 100 µM (inactive)
- GI50 [4]: > 100 µM (inactive)
- GI50 [5]: > 100 µM (inactive)
- GI50 [6]: > 100 µM (inactive)
- GI50 [7]: > 100 µM (inactive)
- GI50 [8]: > 100 µM (inactive)
- GI50 [9]: > 100 µM (inactive)
- GI50 [10]: > 100 µM (inactive)
- GI50 [11]: > 100 µM (inactive)
- GI50 [12]: > 100 µM
- GI50 [13]: > 100 µM (inactive)
- GI50 [14]: > 100 µM (inactive)
- GI50 [15]: > 100 µM (inactive)
- GI50 [16]: > 100 µM (inactive)
- GI50 [17]: > 100 µM (inactive)
- GI50 [18]: > 100 µM (inactive)
- GI50 [19]: > 100 µM (inactive)
- GI50 [20]: > 100 µM (inactive)
- GI50 [21]: > 100 µM (inactive)
- GI50 [22]: > 100 µM (inactive)
- GI50 [23]: > 100 µM (inactive)
- GI50 [24]: > 100 µM (inactive)
- GI50 [25]: > 100 µM (inactive)
- GI50 [26]: > 100 µM (inactive)
- GI50 [27]: > 100 µM (inactive)
- GI50 [28]: > 100 µM (inactive)
- GI50 [29]: > 100 µM (inactive)
- GI50 [30]: > 100 µM (inactive)
- GI50 [31]: > 100 µM (inactive)
- GI50 [32]: > 100 µM (inactive)
- GI50 [33]: > 100 µM (inactive)
- GI50 [34]: > 100 µM (inactive)
- GI50 [35]: > 100 µM (inactive)
- GI50 [36]: > 100 µM (inactive)
- GI50 [37]: > 100 µM (inactive)
- GI50 [38]: > 100 µM (inactive)
- GI50 [39]: > 100 µM (inactive)
- GI50 [40]: > 100 µM (inactive)
- GI50 [41]: > 100 µM (inactive)
- GI50 [42]: > 100 µM (inactive)
- GI50 [43]: > 100 µM (inactive)
- GI50 [44]: > 100 µM (inactive)
- GI50 [45]: > 100 µM (inactive)
- GI50 [46]: > 100 µM (inactive)
- GI50 [47]: > 100 µM (inactive)
- GI50 [48]: > 100 µM (inactive)
- GI50 [49]: > 100 µM (inactive)
- GI50 [50]: > 100 µM (inactive)
- GI50 [51]: > 100 µM (inactive)
- GI50 [52]: > 100 µM (inactive)
